One data set relates to TEAD-YAP/TAZ interaction. Put plainly: CTGF ELISA assay. It is filed as cell-based, human. The note with it: CTGF in culture supernatant of NCI-H2052 cells, 24 hours with compound. In a few lines: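 NCI-H2052 cells treated 24 h at 37 °C with compound (10000–0.61 nM, 0.5% DMSO); secreted CTGF in supernatant measured by sandwich ELISA (OD 450 nm) against a standard curve. EC50 fitted from CTGF concentration-response curves.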

Data set [1] can be described thus: Pharmacokinetics in plasma following PO cassette dosing in mice. The note with it: mouse, Balb/C female mice, 5 mg/kg; for AUC: blood collection 30 min, 2 h, 4 h. It is filed as in vivo. How it is done:
Adult Balb/C female mice (6-7 weeks, Vitalriver) were received to cassette dosing of the test compounds with 10-20% DMSO, 10% Solutol (Kolliphor HS 15, Beijing Fengli Jingqiu Pharmaceutical Co., Ltd.) and 80-70% H2O as excipients. The mice (n=3) were giving oral administration (intragastric administration) at a dose of 5 mg/kg. Time of blood collection: 30 min, 2 h, 4 h. About 0.1 mL of whole blood was collected from retro-orbital venous plexus, and placed into tubes that contained EDTA as an anticoagulant. The samples were centrifuged at 4° C. and 4000 rpm for 10 min. The plasma was transferred into centrifuge tubes, and stored at −20° C. before being analyzed. Concentrations of test compounds in the plasma samples were analyzed with liquid chromatography-tandem mass spectrometry (LC-MS/MS). Plasma concentration-time data of individual animals was analyzed using Microsoft Excel 2010. Non-compartmental model was introduced in concentration analysis. The pharmacokinetic parameters of the test compounds were calculated using WinNonlin (version 4.1; Pharsight) software.

The structures appear in SMILES notation.

The term EC50 denotes the midpoint of the concentration-response curve. By Cmax is commonly meant the highest concentration seen after dosing. By AUC is commonly meant the area under the concentration-time curve, a measure of exposure. On to `C=CC(=O)N1CCC(n2nc(-c3ccc(C(F)(F)F)cc3)c3cccnc32)C1` (stereo not drawn) [Compound 21, 1-(3-(3-(4-(trifluoromethyl)phen-yl)-1H-pyrazolo[3,4-b]pyridin-1-yl)pyrrolidin-1-yl)prop-2-en-1-one], for which, in the data set on TEAD-YAP/TAZ interaction, the EC50 amounted to 0.011 µM. In data set [1], this compound had a Cmax of 1.06 µg/mL and an AUC of 3.15 µg·h/mL.

For the compound `C=CC(=O)N1CCC(n2nc(-c3ccc(C(F)(F)F)cc3)c3ncccc32)C1` (stereo not drawn) [Compound 26, 1-(3-(3-(4-(trifluoromethyl)phen-yl)-1H-pyrazolo[4,3-b]pyridin-1-yl)pyrrolidin-1-yl)prop-2-en-1-one], the EC50 in the data set with TEAD-YAP/TAZ interaction was found to be 0.0036 µM. In data set [1], the Cmax stood at 1.42 µg/mL and the AUC stood at 4.64 µg·h/mL.

Turning to `C=CC(=O)N1CCC(n2nc(-c3ccc(C(F)(F)F)cc3)c3ccc(C)cc32)C1` (stereo not drawn) [Compound 47, 1-(3-(6-methyl-3-(4-(trifluoro-methyl)phenyl)-1H-indazol-1-yl)-pyrrolidin-1-yl)prop-2-en-1-one], the 50% effective concentration (EC50) in the data set with TEAD-YAP/TAZ interaction worked out at 0.015 µM. In data set [1], the Cmax was found to be 0.721 µg/mL and the AUC is 2.51 µg·h/mL.

As for `C=CC(=O)N1CCC(n2nc(-c3ccc(C(F)(F)F)cn3)c3ccccc32)C1` (stereo not drawn) [Compound 58, 1-(3-(3-(5-(trifluoromethyl)pyr-idin-2-yl)-1H-indazol-1-yl)pyrrol-idin-1-yl)prop-2-en-1-one], the EC50 in the data set on TEAD-YAP/TAZ interaction worked out at 0.017 µM. In data set [1], this compound displayed a Cmax of 1.58 µg/mL and an AUC of 4.47 µg·h/mL.

Turning to `C=CC(=O)N1CCC(n2nc(-c3ccc(C(F)(F)F)cc3)c3nc(OC)ccc32)C1` (stereo not drawn) [Compound 89, 1-(3-(5-methoxy-3-(4-(trifluoro-methyl)phenyl)-1H-pyrazolo[4,3-b]pyridin-1-yl)pyrrolidin-1-yl)-prop-2-en-1-one], the EC50 with TEAD-YAP/TAZ interaction amounted to 0.012 µM. Further, in data set [1], the Cmax was 1.97 µg/mL and the AUC came to 6.48 µg·h/mL.

Turning to `C=CC(=O)N1CCC(n2nc(-c3ccc(C(F)(F)F)nc3)c3cccc(C(=O)NC4CC(F)(F)C4)c32)C1` (stereo not drawn) [Compound 104, 1-(1-acryloylpyrrolidin-3-yl)-N-(3,3-difluorocyclobutyl)-3-(6-(trifluoromethyl)pyridin-3-yl)-1H-indazole-7-carboxamide], in the data set on TEAD-YAP/TAZ interaction, the EC50 came out at 0.014 µM. In data set [1], this compound returned a Cmax of 1.52 µg/mL and an AUC of 5.06 µg·h/mL.

For `C=CC(=O)N1CCC(n2nc(-c3ccc(C(F)(F)F)cc3)c3cc(Cl)cnc32)C1` (stereo not drawn) [Compound 108, 1-(3-(5-chloro-3-(4-(trifluoro-methyl)phenyl)-1H-pyrazolo[3,4-b]pyridin-1-yl)pyrrolidin-1-yl)-prop-2-en-1-one], the EC50 in the data set on TEAD-YAP/TAZ interaction stood at 0.012 µM. In data set [1], this compound gave a Cmax of 1.2 µg/mL and an AUC of 3.5 µg·h/mL.

Regarding `C=C(F)C(=O)N1CC(n2nc(-c3ccc(C(F)(F)F)cc3F)c3cccnc32)C1` [Compound 128, 2-fluoro-1-(3-(3-(2-fluoro-4-(trifluoromethyl)phenyl)-1H-pyrazolo[3,4-b]pyridin-1-yl)-azetidin-1-yl)prop-2-en-1-one], in the data set on TEAD-YAP/TAZ interaction, the EC50 amounted to 0.009 µM. In data set [1], the Cmax is 5.27 µg/mL and the AUC amounted to 19.3 µg·h/mL.

Take `C=C(F)C(=O)N1CC(n2nc(-c3ccc(C(F)(F)F)cc3F)c3ncccc32)C1` [Compound 130, 2-fluoro-1-(3-(3-(2-fluoro-4-(trifluoromethyl)phenyl)-1H-pyrazolo[4,3-b]pyridin-1-yl)-azetidin-1-yl)prop-2-en-1-one]: in the data set on TEAD-YAP/TAZ interaction, the EC50 stood at 0.004 µM. In addition, in data set [1], the Cmax was 1.96 µg/mL and the AUC was found to be 7.11 µg·h/mL.

`C=C(F)C(=O)N1CC(n2nc(-c3ccc(OC(F)(F)F)cc3)c3cccnc32)C1` [Compound 172, 2-fluoro-1-(3-(3-(4-(trifluoro-methoxy)phenyl)-1H-pyrazolo-[3,4-b]pyridin-1-yl)azetidin-1-yl)prop-2-en-1-one]: the EC50 with TEAD-YAP/TAZ interaction was 0.0004 µM. Besides, in data set [1], the Cmax was 1.65 µg/mL and the AUC came out at 1.65 µg·h/mL.

`C=C(F)C(=O)N1CC(n2nc(-c3ccc(S(F)(F)(F)(F)F)cc3)c3cccnc32)C1` [Compound 173, 2-fluoro-1-(3-(3-(4-(pentafluoro-16-sulfanyl)phenyl)-1H-pyrazolo-[3,4-b]pyridin-1-yl)azetidin-1-yl)prop-2-en-1-one]: the EC50 in the data set on TEAD-YAP/TAZ interaction was determined as 0.048 µM. In data set [1], this compound registered a Cmax of 1.67 µg/mL and an AUC of 5.96 µg·h/mL.

Take `C=C(F)C(=O)N1CC(n2nc(-c3ccc(C(F)(F)F)nc3C)c3cccnc32)C1` [Compound 182, 2-fluoro-1-(3-(3-(2-methyl-6-(trifluoromethyl)pyridin-3-yl)-1H-pyrazolo[3,4-b]pyridin-1-yl)azetidin-1-yl)prop-2-en-1-one]: the EC50 with TEAD-YAP/TAZ interaction was 0.000394 µM. In data set [1], the highest level (Cmax) was 2.16 µg/mL and the AUC turned out to be 7.41 µg·h/mL.

As to `C=C(F)C(=O)N1CC(n2nc(-c3cnc(C(F)(F)F)nc3)c3cccnc32)C1` [Compound 183, 2-fluoro-1-(3-(3-(2-(trifluorometh-yl)pyrimidin-5-yl)-1H-pyrazolo-[3,4-b]pyridin-1-yl)azetidin-1-yl)-prop-2-en-1-one], in data set [1], the Cmax amounted to 3.68 µg/mL and the area under the curve (AUC) stood at 12.8 µg·h/mL.

In the case of `C=C(F)C(=O)N1CC(n2nc(-c3ccc(C(F)(F)F)cc3)c3ncn(CC)c(=O)c32)C1` [Compound 218, 6-ethyl-1-(1-(2-fluoroacryloyl)-azetidin-3-yl)-3-(4-(trifluoro-methyl)phenyl)-1,6-dihydro-7H-pyrazolo[4,3-d]pyrimidin-7-one], in the data set with TEAD-YAP/TAZ interaction, the EC50 is 0.0007 µM. In data set [1], this compound showed a Cmax of 1.19 µg/mL and an AUC of 3.78 µg·h/mL.

On to `C=C(F)C(=O)N1CC(n2c(=O)n(-c3ccc(C(F)(F)F)cc3)c3ccccc32)C1` [Compound 229, 1-(1-(2 fluoroacryloyl)azetidin-3 yl)-3-(4-(trifluoromethyl)phenyl)-1,3-dihydro-2H-benzo[d]imidazol-2-one], for which the EC50 with TEAD-YAP/TAZ interaction was found to be 0.02 µM. For the same compound, in data set [1], the concentration peaked (Cmax) at 1.04 µg/mL and the AUC was 3.83 µg·h/mL.

Turning to `C=C(F)C(=O)N1CC(n2c(=O)n(-c3ccc(C(F)(F)F)cc3)c3nccnc32)C1` [Compound 240, 1-(1-(2-fluoroacryloyl)azetidin-3-yl)-3-(4-(trifluoromethyl)phenyl)-1,3-dihydro-2H-imidazo[4,5-b]pyrazin-2-one], the EC50 in the data set on TEAD-YAP/TAZ interaction came to 0.0013 µM. In data set [1], the Cmax was 1.6 µg/mL and the AUC was 5.88 µg·h/mL.

In data set [1], `C=C(F)C(=O)N1CC(n2c(=O)n(-c3ccc(C(F)(F)F)nc3)c3nccnc32)C1` [Compound 241, 1-(1-(2-fluoroacryloyl)azetidin-3-yl)-3-(6-(trifluoromethyl)pyridin-3-yl)-1,3-dihydro-2H-imidazo[4,5-b]pyrazin-2-one] had a Cmax of 2.53 µg/mL and an AUC of 8.26 µg·h/mL.

Regarding `C=C(F)C(=O)N1CC(n2c(=O)n(-c3ccc(C(F)(F)F)cc3)c3ccc(C)nc32)C1` [Compound 242, 3-(1-(2-fluoroacryloyl)azetidin-3-yl)-5-methyl-1-(4-(trifluoromethyl)phenyl)-1,3-dihydro-2H-imidazo[4,5-b]pyridin-2-one], the EC50 in the data set on TEAD-YAP/TAZ interaction was determined as 0.01 µM. In data set [1], this compound yielded a Cmax of 1.77 µg/mL and an AUC of 5.41 µg·h/mL.

As for `C=C(F)C(=O)N1CC(n2c(=O)n(-c3ccc(C(F)(F)F)nc3)c3ccc(C)nc32)C1` [Compound 243, 3-(1-(2-fluoroacryloyl)azetidin-3-yl)-5-methyl-1-(6-(trifluoromethyl)pyridin-3-yl)-1,3-dihydro-2H-imidazo[4,5-b]pyridin-2-one], in the data set with TEAD-YAP/TAZ interaction, the EC50 was 0.028 µM. In data set [1], this compound returned a Cmax of 1.21 µg/mL and an AUC of 4.01 µg·h/mL.

For `C=CC(=O)NC1CN(c2nc(-c3ccc(C(F)(F)F)cc3)nc3ccccc23)C1` [compound 268, N-(1-(2-(4-(trifluoromethyl)phenyl)quinazolin-4-yl)azetidin-3-yl)acrylamide], in data set [1], the Cmax is 1.69 µg/mL and the AUC came out at 6.1 µg·h/mL.

In data set [1], `C=C(F)C(=O)NC1CN(c2nc(-c3ccc(C(F)(F)F)cc3)nc3ccccc23)C1` [compound 269, 2-fluoro-N-(1-(2-(4-(trifluoromethyl)phenyl)quinazolin-4-yl)azetidin-3-yl)acrylamide] showed a Cmax of 1.25 µg/mL and an AUC of 4.37 µg·h/mL.

Consider `C=CC(=O)NC1CN(c2nc(-c3ccc(C(F)(F)F)cc3)nc3cccnc23)C1` [compound 281, N-(1-(2-(4-(trifluoromethyl)phenyl)pyrido[3,2-d]pyrimidin-4-yl)azetidin-3-yl)acrylamide], for which, in data set [1], the Cmax was determined as 1.19 µg/mL and the AUC came to 4.2 µg·h/mL.

With `C=C(F)C(=O)N1CC(n2nc(C#Cc3ccccc3)c3cccnc32)C1` [compound 307], in data set [1], the Cmax was 2.71 µg/mL and the AUC is 8.48 µg·h/mL.

Regarding `C=C(F)C(=O)N1CC(n2nc(/C=C/c3ccccc3)c3cccnc32)C1` [compound 308], in data set [1], the Cmax came out at 2.61 µg/mL and the AUC turned out to be 9.11 µg·h/mL.

Turning to `C=C(F)C(=O)N1CC(n2nc(C#CC3CCCC3)c3cccnc32)C1` [compound 312, 1-(3-(3-(cyclopentylethynyl)-1H-pyrazolo[3,4-b]pyridin-1-yl)azetidin-1-yl)-2-fluoroprop-2-en-1-one], in data set [1], the Cmax was determined as 2.08 µg/mL and the AUC stood at 5.79 µg·h/mL.

For `C=C(F)C(=O)N1CC(n2nc(/C=C/C3CCCCC3)c3cccnc32)C1` [compound 331, (E)-1-(3-(3-(2-cyclohexylvinyl)-1H-pyrazolo[3,4-b]pyridin-1-yl)azetidin-1-yl)-2-fluoroprop-2-en-1-one], in data set [1], the Cmax stood at 1.76 µg/mL and the AUC was found to be 5.73 µg·h/mL.

For the origin of these results see patent US20230391779A1, “BICYCLIC COMPOUNDS, COMPOSITIONS AND USE THEREOF” (Betta Pharmaceuticals Co., Ltd., priority 2020, published 2023).
